# Assay results: patent publication US20060035291A1, “Method of detecting cellular immunity and application thereof to drugs” (priority 2001, published 2006)
# Like-named read-outs stand apart in the source and are kept apart here. Where no end group is shown, it is not given here.
# Key:
# healthy donors [1] = assay: Allergic skin reaction (type I allergy) skin test in healthy donors
# healthy donors [2] = details: in vivo
# cancer patients [3] = assay: Skin test for immediate and delayed type hypersensitivity in cancer patients; details: for type I allergy in skin tests during the course of vaccination: skin tests before the 9th and 17th dose (ART413, SART3315), 3rd pre-vaccination skin test (CypB91)
# Protocol: For the skin test, 10 μg of 5 kinds of peptides was subcutaneously administered to each patient. Saline was used as the negative control. 20 minutes and 24 hours after injection, immediate and delayed type hypersensitivity (DHT) reactions were looked for. The skin test reaction was determined as positive if erythema and sclerosis were more than 10 mm in diameter. If the immediate hypersensitivity reaction was negative, a peptide was administered. Each peptide solution (3 mg/ml) was mixed with the same amount of IFA (Montanide ISA-51) and emulsified in a 5-mI plastic syringe, and 3 ml of the emulsion was subcutaneously administered to the lateral femoral region every two weeks. Serum PSA level was measured 4 weeks after vaccination. The time passed was defined as the time from the registration day to the date when the progress of the target disease was recorded. For patients who chose to discontinue the study without any progress of the target disease (e.g., increase in PSA) it was determined that the disease had progressed at the time the study was stopped.
# When an immediate hypersensitivity reaction positive in the skin test of one of these peptides, that peptide was vaccinated if the fifth peptide of criteria A, B, or Z was negative in the skin test. […] In Table 14, o signifies vaccine peptides given to each patient.
# Vaccine was administered to HLA-A24 positive patients with progressive cancer as following. CypB91 was given to lung cancer patients, ART475 to ovarian cancer patients, and SART3109 to colorectal cancer patients. None of the patients received any steroids or other immunosuppressants from 4 weeks before the beginning of this study to the end of the study. When the skin test was negative, 1 ml of peptide solution (1 mg/ml) was emulsified with the same amount of Freund's incomplete adjuvant (Montanide ISA-51) and injected subcutaneously. In this embodiment, all patients were vaccinated at least three times every two weeks, and up to seventeen times, depending on the patient's wishes.
# [4] = test system: HLA-A24 restricted antigen peptide-specific T cells (CTL precursors) in PBMCs; type: cell-based, human; details: for IFN-γ production 1st well / IFN-γ production 2nd well / IFN-γ production 3rd well / change in reactivity of PBMCs to the vaccinated peptide after vaccination: HLA-A24 positive cervical cancer patient; for change in reactivity of PBMCs to the vaccinated peptide after vaccination: before vs after 3rd and 6th dose; for CTL precursor induction assay, response level per well: quadricate assay
# [5] = test system: CD8 positive and HLA-A24/peptide tetramer positive T cells; details: PBMCs of healthy donors sensitized in vitro with EBV peptide, protocol C
# Protocol: Recombinant HLA-A2402 a chains containing a biotinated portion and recombinant β2-microglobline were synthesized and used for refolding of soluble HLA molecules in the presence of HLA-A2402 binding peptides. […] Monomer HLA-peptide complex was biotinated with BirA in the a chain, which was isolated form free biotin by gel filtration. The biotinated HLA was tetramerized with 4:1 molar ratio of Strept-avidin-PE. PBMCs sensitized in vitro were re-suspended at the ratio of 5×10^5 cells per 25 μl of phosphate buffer saline (PBS) containing 20% of human AB serum. […] After that, the cells were washed with PBS and analyzed using FACScan. Twenty thousand events were obtained.
# More specifically, PBMCs stimulated according to protocol C determined in Example 3 were analyzed by the tetramer assay as described above.
# cancer patients [6] = details: cancer patients (Miyagi et al., Clin. Cancer Res. 7:3950, 2001); cited from earlier work
# [7] = colorectal cancer patient 4, after the 3rd vaccination
# [8] = after more than 5 doses of cancer vaccine
# [9] = before vaccination, response to HIV-C1R-A24 cells subtracted
# [10] = HLA-A24 positive cervical cancer patient PBMCs
# [11] = HRPC Pt. 1, pre-vaccinated PBMCs
# [12] = HRPC Pt. 3, pre-vaccinated PBMCs
sequence,measurement,setting,value
TFHRVIKDF,"Allergic skin reaction, area of flare",healthy donors [1]; healthy donor HD1,540 mm × mm
same,"Allergic skin reaction, area of flare",healthy donors [1]; healthy donor HD2,1400 mm × mm
same,"Allergic skin reaction, area of flare",healthy donors [1]; healthy donor HD3,750 mm × mm
same,"Allergic skin reaction, area of flare",healthy donors [1]; healthy donor HD6,450 mm × mm
same,"Allergic skin reaction, area of flare",healthy donors [1]; healthy donor HD10,300 mm × mm
DFMIQGGDF [CypB91],rate of skin reaction occurrence (donors),healthy donors [2],no such response
same,immediate hypersensitivity reaction in skin test,"cancer patients [3]; human, in vivo",positive in all patients
same,type I allergy in skin tests during the course of vaccination,cancer patients [3],induced type I allergy
DYLRSVLEDF [lck488],peptide-specific DTH reaction,cancer patients [3]; colorectal cancer patient 1,observed after the 6th vaccination
same,peptide-specific DTH reaction,cancer patients [3]; [7],exhibited DTH reaction
same,IFN-γ production 1st well,[4]; [8],25 pg/well
same,IFN-γ production 2nd well,[4]; [8],99 pg/well
same,IFN-γ production 1st well,[4]; [9],<0 pg/well
same,IFN-γ production 2nd well,[4]; [9],<0 pg/well
same,IFN-γ production 3rd well,[4]; [9],25 pg/well
EYCLKFTKL [ART1170],immediate hypersensitivity reaction in skin test,"cancer patients [3]; 10 colorectal cancer patients, before vaccination",positive in all patients
NFHRVIKDF,"Allergic skin reaction, area of flare",healthy donors [1]; healthy donor HD1,360 mm × mm
same,"Allergic skin reaction, area of flare",healthy donors [1]; healthy donor HD2,1400 mm × mm
same,"Allergic skin reaction, area of flare",healthy donors [1]; healthy donor HD3,600 mm × mm
same,"Allergic skin reaction, area of flare",healthy donors [1]; healthy donor HD6,1350 mm × mm
same,"Allergic skin reaction, area of flare",healthy donors [1]; healthy donor HD10,300 mm × mm
KFHRVIPKF,"Allergic skin reaction, area of flare",healthy donors [1]; healthy donor HD1,600 mm × mm
same,"Allergic skin reaction, area of flare",healthy donors [1]; healthy donor HD2,750 mm × mm
same,"Allergic skin reaction, area of flare",healthy donors [1]; healthy donor HD3,1225 mm × mm
same,"Allergic skin reaction, area of flare",healthy donors [1]; healthy donor HD6,500 mm × mm
same,"Allergic skin reaction, area of flare",healthy donors [1]; healthy donor HD10,625 mm × mm
VYDYNCHVDL [SART3109],rate of skin reaction occurrence,healthy donors [2],17%
same,rate of skin reaction occurrence (donors),healthy donors [2],7/41
"TYGPVFMCL [EBV, reference compound]",ratio of the CD8 positive and HLA-A24/peptide tetramer positive subsets,[5],1.15%
same,detection of peptide-specific T cells,[4],detected in all 10 donors
same,difference in IFN-γ production between target cells sensitized with EB virus peptide and HIV peptide,[4],2775 pg/mL
same,difference in production level of IFN-γ between target cells sensitized with EB virus peptide and HIV peptide,[4],more than 300 pg/ml
"AFLRHAAL [ART413, AFLRHAAL]",rate of skin reaction occurrence,healthy donors [2],95%
same,rate of skin reaction occurrence (donors),healthy donors [2],38/40
same,immediate hypersensitivity reaction in skin test,"cancer patients [3]; human, in vivo",positive in all patients
same,type I allergy in skin tests during the course of vaccination,cancer patients [3],did not induce type I allergy
same,allergic skin reaction in pre-vaccination study,cancer patients [6],induced allergic skin reaction
RYLRQQLLGI [HIV peptide],ratio of the CD8 positive and HLA-A24/peptide tetramer positive subsets,[5],0.03%
PFHRVIPDF,"Allergic skin reaction, area of flare",healthy donors [1]; healthy donor HD1,525 mm × mm
same,"Allergic skin reaction, area of flare",healthy donors [1]; healthy donor HD2,2000 mm × mm
same,"Allergic skin reaction, area of flare",healthy donors [1]; healthy donor HD3,1400 mm × mm
same,"Allergic skin reaction, area of flare",healthy donors [1]; healthy donor HD6,700 mm × mm
same,"Allergic skin reaction, area of flare",healthy donors [1]; healthy donor HD10,270 mm × mm
AYIDFEMKI [SART3315],rate of skin reaction occurrence,healthy donors [2],45%
same,rate of skin reaction occurrence (donors),healthy donors [2],18/40
same,type I allergy in skin tests during the course of vaccination,cancer patients [3],did not induce type I allergy
same,allergic skin reaction in pre-vaccination study,cancer patients [6],induced allergic skin reaction
KFHRVGKDF,number of donors in whom the skin reaction was significantly decreased (<=0.25 of the rate in redness range),healthy donors [2],3
AYDFLYNYL [SART2161],rate of skin reaction occurrence (donors),healthy donors [2],no such response
HYTNASDGL [lck208],peptide-specific DTH reaction,cancer patients [3]; colorectal cancer patient 1,observed after the 6th vaccination
same,peptide-specific DTH reaction,cancer patients [3]; [7],exhibited DTH reaction
same,frequency of detection in the primary screening (patients),[4],3/10
same,IFN-γ production After 3rd dose of vaccine,[4]; [10],676 pg/mL
same,IFN-γ production After 6th dose of vaccine,[4]; [10],745 pg/mL
same,IFN-γ production Pre-Vaccination,[4]; [10],602 pg/mL
same,IFN-γ production 1st well,[4]; [8],41 pg/well
same,IFN-γ production 2nd well,[4]; [8],1473 pg/well
same,IFN-γ production 1st well,[4]; [9],<0 pg/well
same,IFN-γ production 2nd well,[4]; [9],<0 pg/well
same,IFN-γ production 3rd well,[4]; [9],76 pg/well
same,change in reactivity of PBMCs to the vaccinated peptide after vaccination,[4],increase in reactivity
same,"CTL precursor induction assay, response level per well",[4]; [11],E^′
same,"CTL precursor induction assay, response level per well",[4]; [12],⊚AD
same,"CTL precursor induction assay, response level per well","[4]; HRPC Pt. 6, pre-vaccinated PBMCs",⊚ArAAC
same,"CTL precursor induction assay, response level per well","[4]; HRPC Pt. 9, pre-vaccinated PBMCs",⊚AD
same,positive well frequency after vaccination,[4]; colorectal cancer patient 1,increase in positive well frequency
same,positive well frequency after vaccination,[4]; colorectal cancer patient 2,increase in positive well frequency
DYPSLSATDI [ART475],rate of skin reaction occurrence (donors),healthy donors [2],no such response
same,IFN-γ production 1st well,[4]; [8],9 pg/well
same,IFN-γ production 2nd well,[4]; [8],2 pg/well
same,IFN-γ production 3rd well,[4]; [8],60 pg/well
same,change in reactivity of PBMCs to the vaccinated peptide after vaccination,[4],increase in reactivity
same,"CTL precursor induction assay, response level per well",[4]; [12],⊚AE
same,"CTL precursor induction assay, response level per well","[4]; HRPC Pt. 4, pre-vaccinated PBMCs",⊚B
HFHRVIPDF,"Allergic skin reaction, area of flare",healthy donors [1]; healthy donor HD1,375 mm × mm
same,"Allergic skin reaction, area of flare",healthy donors [1]; healthy donor HD2,1225 mm × mm
same,"Allergic skin reaction, area of flare",healthy donors [1]; healthy donor HD3,750 mm × mm
same,"Allergic skin reaction, area of flare",healthy donors [1]; healthy donor HD6,900 mm × mm
same,"Allergic skin reaction, area of flare",healthy donors [1]; healthy donor HD10,156 mm × mm
KFHGVIKDF,number of donors in whom the skin reaction was significantly decreased (<=0.25 of the rate in redness range),healthy donors [2],1
AFLRHAAG [ART4 13-8G],suppressed cases FR ≦ 0.25,healthy donors [2],1/4
KFHGVIKDF [CypB 84-4G],suppressed cases FR ≦ 0.25,healthy donors [2],1/7
KFHRVIKGF [CypB 84-8G],suppressed cases FR ≦ 0.25,healthy donors [2],0/7
SFHRVIKDF,skin reaction compared with human CypB84,healthy donors [1]; 5 healthy donors,weaker skin reaction
same,"Allergic skin reaction, area of flare",healthy donors [1]; healthy donor HD1,0 mm × mm
same,"Allergic skin reaction, area of flare",healthy donors [1]; healthy donor HD2,400 mm × mm
same,"Allergic skin reaction, area of flare",healthy donors [1]; healthy donor HD3,225 mm × mm
same,"Allergic skin reaction, area of flare",healthy donors [1]; healthy donor HD6,255 mm × mm
same,"Allergic skin reaction, area of flare",healthy donors [1]; healthy donor HD10,100 mm × mm
AGLRHAAL,skin reaction,healthy donors [2],did not induce skin reaction in any of 4 donors
SYTRLFLIL [SART2899],rate of skin reaction occurrence,healthy donors [2],25%
same,rate of skin reaction occurrence (donors),healthy donors [2],10/40
same,immediate hypersensitivity reaction in skin test,"cancer patients [3]; human, in vivo",positive in all patients
same,allergic skin reaction in pre-vaccination study,cancer patients [6],induced allergic skin reaction
KFHRVIGDF,number of donors in whom the skin reaction was significantly decreased (<=0.25 of the rate in redness range),healthy donors [2],1
KFHRVIKDF [CypB84],rate of skin reaction occurrence,healthy donors [2],95%
same,rate of skin reaction occurrence (donors),healthy donors [2],39/41
same,patients with immediate hypersensitivity reaction in pre-vaccination skin test,"cancer patients [3]; vaccinated patients with lung cancer, Phase I clinical trial",8 of 10
TFDYLRSVL [lck486],peptide-specific DTH reaction,cancer patients [3]; [7],exhibited DTH reaction
same,IFN-γ production 1st well,[4]; [8],2 pg/well
same,IFN-γ production 2nd well,[4]; [8],24 pg/well
same,IFN-γ production 3rd well,[4]; [8],<0 pg/well
same,IFN-γ production 1st well,[4]; [9],<0 pg/well
same,IFN-γ production 2nd well,[4]; [9],<0 pg/well
same,IFN-γ production 3rd well,[4]; [9],31 pg/well
same,"CTL precursor induction assay, response level per well",[4]; [11],E (E: 0.1<p≦0.2 and 100≦net)
same,"CTL precursor induction assay, response level per well","[4]; HRPC Pt. 2, pre-vaccinated PBMCs",^b(⊚B)
same,"CTL precursor induction assay, response level per well",[4]; [12],(D)
same,"CTL precursor induction assay, response level per well","[4]; HRPC Pt. 8, pre-vaccinated PBMCs",⊚A
